Data on two molecules can be found in US20090047655A1, “Method Of Screening Candidate Drug” (priority 2004, published 2009).

One data set in a line: in vivo. To be noted: mouse, in vivo. The source says: (§1) As for the chimeric mice, chimeric mice produced by Hiroshima Prefectural Institute of Industrial Science and Technology or PhoenixBio Co., Ltd. were used. To be more specific, mice in which human hepatocytes were engrafted and proliferated in the mouse liver were produced by transplanting human hepatocytes (IVT079, purchased from In Vitro Technology Inc., or BD51, purchased from BD Gentest Inc.) into the spleen of uPA(+/+)/SCID mice, which are mice having hepatic impairment and immunodeficiency. Mice in which 70% or more of the mouse liver had been replaced with human hepatocytes (high-replacement chimeric mice) and low-replacement chimeric mice in which although human hepatocytes had been transplanted, the replacement ratio was almost 0%, or untransplanted mice (mice with no replacement) were used (3 mice in each group). Further, as a control, 3 uPA(−/−)/SCID mice were used.
(§2) The concentration for administration of tolbutamide which is a standard drug for CYP2C9 was […]., and 4.175 mg of tolbutamide was weighed out and suspended in 1 ml of a CMC liquid in an agate mortar, and a 4.175 mg/ml suspension which is 5 times as high as the concentration for administration was prepared.
(§3) To the high-replacement chimeric mice, low-replacement chimeric mice (or mice with no replacement) and uPA(−/−)/SCID mice (3 mice in each group), 5 compounds were simultaneously administered orally by gavage or intravenously. The blood was collected from the tail vein of each mouse in an amount of 15 μl each at 0.25 (only intravenous administration), 0.5, 1, 2, 4 (only oral administration) and 8 hours after administration. Then, the blood was centrifuged at 3,500 rpm for 5 minutes, and the serum (supernatant) was collected and stored in a freezer at −30° C.
(§4) The serum samples were transported to Sumika Chemical Analysis Service, Ltd. while keeping it in dry ice, and subjected to measurement by LC-MS/MS according to the following procedure.
(§5) With regard to a liquid chromatograph, SIL-HTC and LC-10A series (Shimadzu Corporation) were used, and as a column, Synergi 4μ Polar-RP 80A, 150 mm (length)×2.00 mm (inner diameter), 4 μm (Phenomenex Inc.) was used at 30° C. As a mobile phase, methanol/a 10 mmol/l ammonium acetate solution/acetic acid (700/300/2, v/v/v) was used, and a flow rate was set at 0.2 ml/min. An injection volume was set at 2 μl, a measurement time was set at 10 min, and the temperature of an autosampler was set at 4° C. As a mass spectrometer, Tandem Mass Spectrometer API 4000 (Applied Biosystems/MDS SCIEX Inc.) was used. As API interface, Turbo V (ESI probe) was used, and as Ionization mode, Positive ion detection mode was used.
To Eppendorf tubes in which 5 μl of samples to be measured (serum) were contained, 100 μl of methanol was added, and 10 μl of 1 μg/ml of I.S. standard solution was added thereto, and then, the mixtures were thoroughly mixed by an ultrasonic treatment and a vortex mixer. The resulting mixtures were centrifuged (15,000 rpm, 5 min, room temperature), and the resulting supernatants were subjected to centrifugal filtration (10,000 rpm, 2 min, room temperature) with a filter, and the resulting filtrates were used as injection samples for LC-MS/MS.
(§6) The determined values of the drug concentration in the serum were calculated from the peak area ratio obtained by the LC-MS/MS measurement of the samples for addition calibration curve. […] From the graphs, the peak serum concentration (Cmax), half-life (t1/2), area under the curve (AUC), bioavailability and clearance were analyzed, and pharmacokinetics in human was predicted.

In the next data set the test system is CYP2D6. Briefly: in vivo. The following applies: uPA(+/+)/SCID, mouse, po. As for the experimental part:
(§7) As for the chimeric mice, chimeric mice produced in PhoenixBio Co., Ltd. were used. To be more specific, 3 mice in which human hepatocytes were engrafted and proliferated in the mouse liver were produced by transplanting human hepatocytes (BD51, purchased from BD Gentist Inc.) into the spleen of uPA(+/+)/SCID mice, which are mice having hepatic impairment and immunodeficiency.
(§8) Paroxetine was dissolved in Milli-Q water (using a bath-type ultrasonic device) and prepared to give a final concentration of 6 mg/ml. The prepared drug was intraperitoneally administered to the mice at a dose of 5 μl/g b.w. (30 mg/kg b.w./day).
(§9) To the high-replacement chimeric mice, paroxetine was intraperitoneally administered for 3 days. Then, in the same manner as in Example 1, 5 compounds were simultaneously administered orally by gavage, the blood was collected over time, and the serum was stored.
(§10) The determination and analysis of drugs in the serum were carried out in the same manner as in Example 1.
(§11) The determined values of the drug concentration in the serum were calculated from the peak area ratio obtained by the LC-MS/MS measurement of the samples for addition calibration curve. […] From the graphs, Cmax, t1/2 and AUC were analyzed.

The conditions of data set [1]: mouse, in vivo.
From the text: as §1, §2, §3, §4, §5
To Eppendorf tubes in which 5 μl of samples to be measured (serum) were contained, 100 μl of methanol was added, and 10 μl of 1 μg/ml of I.S. standard solution was added thereto, and then, the mixtures were thoroughly mixed by an ultrasonic treatment and a vortex mixer. […]
as §6

The next data set has as its target T1, CYP3A4 (Homo sapiens, UniProt P08684).
T1 construct: human hepatocytes were engrafted and proliferated in the mouse liver; host or cells: human donor hepatocytes BD51 engrafted in the liver of uPA(+/+)/SCID mice (high-replacement chimeric mice, PhoenixBio)
Put plainly: Inhibition of metabolic activity by paroxetine in high-replacement chimeric mouse (marker erythromycin). The following applies: paroxetine 30 mg/kg b.w./day i.p. for 3 days, donor BD51. It is filed as in vivo. As for the experimental part: as §7, §8, §9, §10, §11

In another data set the target is T2, CYP2C19 (Homo sapiens, UniProt P33261).
T2 construct: human hepatocytes were engrafted and proliferated in the mouse liver; host or cells: human donor hepatocytes BD51 engrafted in the liver of uPA(+/+)/SCID mice (high-replacement chimeric mice, PhoenixBio)
T2 sequence (P33261 whole entry): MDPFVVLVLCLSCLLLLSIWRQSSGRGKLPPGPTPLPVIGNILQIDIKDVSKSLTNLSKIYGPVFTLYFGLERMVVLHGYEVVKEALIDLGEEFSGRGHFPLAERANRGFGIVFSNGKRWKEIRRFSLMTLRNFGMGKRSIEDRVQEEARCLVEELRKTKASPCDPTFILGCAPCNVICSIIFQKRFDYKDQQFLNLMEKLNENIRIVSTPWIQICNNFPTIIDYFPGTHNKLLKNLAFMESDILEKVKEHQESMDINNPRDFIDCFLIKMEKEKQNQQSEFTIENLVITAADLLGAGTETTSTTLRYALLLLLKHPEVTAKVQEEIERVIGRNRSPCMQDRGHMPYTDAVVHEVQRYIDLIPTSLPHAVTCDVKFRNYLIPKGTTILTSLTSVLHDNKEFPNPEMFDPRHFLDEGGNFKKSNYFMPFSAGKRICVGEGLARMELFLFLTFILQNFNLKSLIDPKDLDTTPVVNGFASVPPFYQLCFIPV
Briefly: Inhibition of metabolic activity by paroxetine in high-replacement chimeric mouse (marker omeprazole). It is filed as in vivo. The following applies: paroxetine 30 mg/kg b.w./day i.p. for 3 days, donor BD51. The protocol:
as §7, §8, §9, §10, §11

The next data set addresses CYP1A2 (Homo sapiens, UniProt P05177). Briefly: Inhibition of metabolic activity by paroxetine in high-replacement chimeric mouse (marker caffeine). The class given is in vivo. The following applies: paroxetine 30 mg/kg b.w./day i.p. for 3 days, donor BD51. As for the experimental part:
as §7, §8, §9, §10, §11

Read-outs that look alike come from different tables or passages of the source.

T1 sequence (P08684 whole entry): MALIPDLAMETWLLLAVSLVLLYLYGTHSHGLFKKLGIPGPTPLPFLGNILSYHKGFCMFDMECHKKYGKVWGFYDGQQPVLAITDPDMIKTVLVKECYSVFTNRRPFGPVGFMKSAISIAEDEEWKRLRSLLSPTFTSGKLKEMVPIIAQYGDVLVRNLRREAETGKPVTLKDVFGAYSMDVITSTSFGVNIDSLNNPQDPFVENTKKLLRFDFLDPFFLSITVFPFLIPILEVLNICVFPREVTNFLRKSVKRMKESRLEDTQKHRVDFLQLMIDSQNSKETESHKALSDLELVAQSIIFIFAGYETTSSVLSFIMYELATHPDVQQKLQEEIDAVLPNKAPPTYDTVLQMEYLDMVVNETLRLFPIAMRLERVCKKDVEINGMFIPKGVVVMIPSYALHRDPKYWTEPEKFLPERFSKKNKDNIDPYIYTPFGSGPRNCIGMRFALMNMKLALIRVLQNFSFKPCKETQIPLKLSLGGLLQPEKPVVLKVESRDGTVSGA
Chain of CYP1A2 (P05177 whole entry): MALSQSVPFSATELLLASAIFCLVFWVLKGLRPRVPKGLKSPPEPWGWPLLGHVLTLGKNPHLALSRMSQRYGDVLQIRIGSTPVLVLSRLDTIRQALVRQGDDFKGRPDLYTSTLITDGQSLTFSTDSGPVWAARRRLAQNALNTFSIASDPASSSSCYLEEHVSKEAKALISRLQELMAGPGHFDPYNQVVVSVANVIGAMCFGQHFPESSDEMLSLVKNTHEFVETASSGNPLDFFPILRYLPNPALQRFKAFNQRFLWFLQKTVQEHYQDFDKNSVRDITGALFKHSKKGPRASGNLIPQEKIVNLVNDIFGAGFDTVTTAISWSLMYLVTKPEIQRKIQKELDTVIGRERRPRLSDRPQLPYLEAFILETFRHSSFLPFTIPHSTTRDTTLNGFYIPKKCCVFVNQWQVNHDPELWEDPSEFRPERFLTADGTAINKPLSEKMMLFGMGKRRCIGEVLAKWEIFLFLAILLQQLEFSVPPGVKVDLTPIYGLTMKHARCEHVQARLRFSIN

For the molecule `CCCCNC(=O)NS(=O)(=O)c1ccc(C)cc1` [Tolbutamide, tolbutamide], the “AUC in high-replacement chimeric mice compared with low-replacement chimeric mice” value (in “in vivo”; in data set [1]) was “significantly lower” in each case. Besides, the AUC in the data set “in vivo” (uPA(+/+)/SCID, iv) came to 20.6 µg·h/mL; in the data set “in vivo” (uPA(+/+)/SCID, iv, AUC), 16.8 µg·h/mL; in the data set “in vivo” (uPA(−/−)/SCID, iv, AUC) it was 11.5 µg·h/mL; in the data set “in vivo” (uPA(−/−)/SCID, po, AUC), 95.3 µg·h/mL; in the data set with CYP2D6, 115 µg·h/mL. Also, in the data set “in vivo” (uPA(+/+)/SCID, iv), the “t 1/2 Distribution phase” value is on record as 0.865^#3 hr. In addition, the half-life in the data set “in vivo” (uPA(+/+)/SCID, iv, t 1/2 Distribution phase) was 0.982 h; in the data set “in vivo” (uPA(+/+)/SCID, po, t 1/2 Elimination phase), 4.3 h; in the data set “in vivo” (uPA(−/−)/SCID, iv, t 1/2 Distribution phase) it was 2.84 h; in “in vivo” (uPA(−/−)/SCID, iv, t 1/2 Elimination phase) it was 2.56 h; in the data set on CYP2D6 (t 1/2 Distribution phase), 3.31 h. The bioavailability in “in vivo” (uPA(−/−)/SCID, po, Bioavailability) is 82.9%. Moreover, the Cmax in “in vivo” (uPA(−/−)/SCID, po, Cmax) amounted to 16.9 µg/mL.

`Fc1ccc([C@@H]2CCNC[C@H]2COc2ccc3c(c2)OCO3)cc1` [paroxetine, Paroxetine]: on CYP3A4, the “inhibition of the metabolic activity of CYP3A4” value is recorded as “inhibition”. In addition, on CYP2C19, the “inhibition of the metabolic activity of CYP2C19” value was “inhibition”. For the same molecule, at CYP1A2, the “inhibition of the metabolic activity of CYP1A2” value is given as “inhibition”.

Usually AUC stands for concentration integrated over time. What is called half-life is how long it takes for the measured level to halve. One may read the bioavailability as the share of a dose that reaches the circulation, judged against a reference dose that is usually intravenous. A word on the Cmax: it is the peak of the concentration-time curve.
